Assay results as given in article PMC3871636 (PLoS ONE, 2013).

Assays:
[1] = biological target: T1, double-labeled CYP3A4 C64/C121-DY/ER (Homo sapiens, UniProt P08684, A121C/C239S/C377S/C468A/C98S/S18F); experiment: Steady-state LRET titration (delayed emission); conditions: Table S2, protein C64/C121-ER/DY
Method: (§1) All absorbance and fluorescence assays (including the time-resolved fluorescence measurements) were performed at a protein concentration ≤1 µM at 25°C with continuous stirring. Absorbance spectra were recorded with an S2000 rapid scanning CCD spectrometer (Ocean Optics). Ligand binding assays were done in 100 mM Na-Hepes buffer, pH 7.4, containing 0.5 mM EDTA.
(§2) Fluorescence-based ligand binding assays were done under anaerobic conditions. Anaerobiosis was achieved using an oxygen-scavenging system consisting of protecatechuate-3,4-dioxygenase (0.5 units/ml) and 5 mM protocatechuic acid. The steady state and time-resolved phosphorescence measurements were performed with the use of a Cary Eclipse fluorescence spectrophotometer (Varian/Agilent Technologies). The excitation wavelength was set to 540 nm. Spectra were taken from 650 to 860 nm with 100 µs delay.
(§3) Quantitative interpretation of LRET results was also based on the use of PCA applied to a series of emission spectra normalized on integral intensity. […] Intensity of the donor and acceptor fluorescence obtained in this way were used in determination of the efficiency of steady-state LRET using the equation [drawing 1] (Eq.1) where I ad is emission intensity of the acceptor, I da is the residual donor emission in the presence of acceptor (I da), Φ a and Φ d are the quantum yield of the fluorescence of acceptor and the quantum yield of the phosphorescence of donor, respectively.
(§4) Distances were calculated using the equation: [drawing 3] (Eq.3) where R 0 is the Förster distance, and R is the distance between the donor and acceptor. R 0 was calculated with the use of PhotoChemCad software. In these calculations, we used the values of the orientation factor (κ^2) and the refractive index (n) of 0.667 and 1.4, respectively.
(§5) When fitting the results of titration experiments, where the changes in the monitored signal A S (fraction of the enzyme in the high-spin state, intensity or the lifetime of the donor phosphorescence at a given substrate concentration) were assumed to be proportional to [ES], this equation was complemented with the offset A 0 and the scaling factor A max to yield the following relationship: [drawing 5] (Eq.5)

[2] = biological target: T1, double-labeled CYP3A4 C64/C121-DY/ER; experiment: Time-resolved LRET (phosphorescence lifetime measurements)
Method: as §1, §2
The treatment of the time-resolved decay traces was performed using a bi-exponential approximation. The efficiency of time-resolved LRET was calculated using the equation [drawing 2] (Eq.2)
In this equation τda and τd designate the average lifetime of the excited state of the donor in the presence and absence of the acceptor, respectively. These average lifetimes are determined as τ = α1τ1+α2τ2, where τ1,2 and α1,2 stay for the lifetime and the relative amplitude of each of the two exponential terms. In our calculations of the lifetime in double-labeled C64/C468, C377/C468 and C64/C121 proteins we used the lifetimes of phosphorescence measured with the respective proteins labeled with ERIA at a label:protein ratio 2∶1 as the estimates of τd.
as §4

[3] = biological target: T2, double-labeled CYP3A4 (C64/C468)-ER/DY (Homo sapiens, UniProt P08684, S18F, form not given); experiment: Steady-state LRET titration (delayed emission); assay type: binding
Method: as §1, §2, §3, §4, §5

[4] = biological target: T3, double-labeled CYP3A4 (C64/C468)-DY/ER (Homo sapiens, UniProt P08684, S18F, form not given); experiment: Steady-state LRET titration (delayed emission); assay type: binding
Method: as §1, §2, §3, §4, §5

[5] = biological target: CYP3A4 (C377/C468 mutant) (Homo sapiens, UniProt P08684, form not given/S18F); experiment: Ligand-induced spin shift, absorbance titration; assay type: binding; conditions: human, purified CYP3A4(C377/C468) mutant protein, pH 7.4; read-out: K D or S 50
Method: as §1
(§6) Absorbance spectra obtained in titration experiments were analyzed with a principal component analysis (PCA) procedure complemented with least-square approximation of the principal vectors with a combination of the prototypical spectra of the CYP3A4 low-spin, high-spin and Type II-substrate-bound ferric CYP3A4 P450 states as described, [31].
as §5

CYP3A4 (C64/C468 mutant) = CYP3A4 (C64/C468 mutant) (Homo sapiens, UniProt P08684, form not given/S18F); experiment: Ligand-induced spin shift, absorbance titration; assay type: binding; conditions: human, purified CYP3A4(C64/C468) mutant protein, pH 7.4; read-out: K D or S 50
Method: as §1, §6, §5

[6] = biological target: T2, double-labeled CYP3A4 (C64/C468)-ER/DY; experiment: Time-resolved LRET (phosphorescence lifetime measurements)
From the text: (§7) The excitation wavelength was set to 540 nm.

[7] = biological target: double-labeled CYP3A4 C377/C468-DY/ER (Homo sapiens, UniProt P08684, S18F, form not given); experiment: as above
From the text: as §7

[8] = biological target: T3, double-labeled CYP3A4 (C64/C468)-DY/ER; experiment: as above
From the text: as §7

[9] = Table S1, protein (C64/C121)-ER/DY, same ligand concentrations
[10] = Table S2, protein C64/C121-ER/DY, same ligand concentrations
[11] = Table S2, C64/C468-ER/DY, 1-PB 40 µM, ANF 100 µM, BCT 2.5 µM, cholesterol 100 µM, testosterone 100 µM
[12] = Table S2, C64/C468-ER/DY, same ligand concentrations
[13] = Table S2, C64/C468-DY/ER, 1-PB 40 µM, ANF 100 µM, BCT 2.5 µM, cholesterol 100 µM, testosterone 100 µM
[14] = Table S2, C64/C468-DY/ER, same ligand concentrations
[15] = (C64/C468)-ER/DY, nearly-saturating ligand: ANF 100 µM, bromocriptine 2.5 µM, cholesterol 50 µM, testosterone 100 µM
[16] = Table S1, (C64/C468)-ER/DY, same ligand concentrations
[17] = Table S1, protein (C377/C468)-ER/DY, same ligand concentrations
[18] = Table S2, protein C377/C468-ER/DY, same ligand concentrations
[19] = (C64/C468)-DY/ER, nearly-saturating ligand: ANF 100 µM, bromocriptine 2.5 µM, cholesterol 50 µM, testosterone 100 µM
[20] = Table S1, (C64/C468)-DY/ER, same ligand concentrations

T3 sequence (P08684 13-503 S18F, form open): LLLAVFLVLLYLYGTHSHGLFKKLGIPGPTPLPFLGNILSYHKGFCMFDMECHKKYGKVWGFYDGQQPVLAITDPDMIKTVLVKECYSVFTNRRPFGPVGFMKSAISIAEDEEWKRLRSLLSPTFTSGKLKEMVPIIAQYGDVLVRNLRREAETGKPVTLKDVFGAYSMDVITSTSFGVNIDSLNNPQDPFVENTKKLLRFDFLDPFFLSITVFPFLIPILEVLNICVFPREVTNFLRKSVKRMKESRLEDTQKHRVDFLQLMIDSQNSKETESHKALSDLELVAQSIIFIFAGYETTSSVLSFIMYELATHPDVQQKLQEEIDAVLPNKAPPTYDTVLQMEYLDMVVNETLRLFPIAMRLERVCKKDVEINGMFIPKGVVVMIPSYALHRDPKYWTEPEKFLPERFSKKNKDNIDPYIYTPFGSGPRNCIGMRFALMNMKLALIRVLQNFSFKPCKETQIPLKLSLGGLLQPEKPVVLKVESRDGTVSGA
Chain of double-labeled CYP3A4 C377/C468-DY/ER (P08684 13-503 S18F, form open): as above
T2 sequence (P08684 13-503 S18F, form open): as above
T1 sequence (P08684 with tags, fused parts or gaps S18F/C98S/A121C/C239S/C377S/C468A limits assumed): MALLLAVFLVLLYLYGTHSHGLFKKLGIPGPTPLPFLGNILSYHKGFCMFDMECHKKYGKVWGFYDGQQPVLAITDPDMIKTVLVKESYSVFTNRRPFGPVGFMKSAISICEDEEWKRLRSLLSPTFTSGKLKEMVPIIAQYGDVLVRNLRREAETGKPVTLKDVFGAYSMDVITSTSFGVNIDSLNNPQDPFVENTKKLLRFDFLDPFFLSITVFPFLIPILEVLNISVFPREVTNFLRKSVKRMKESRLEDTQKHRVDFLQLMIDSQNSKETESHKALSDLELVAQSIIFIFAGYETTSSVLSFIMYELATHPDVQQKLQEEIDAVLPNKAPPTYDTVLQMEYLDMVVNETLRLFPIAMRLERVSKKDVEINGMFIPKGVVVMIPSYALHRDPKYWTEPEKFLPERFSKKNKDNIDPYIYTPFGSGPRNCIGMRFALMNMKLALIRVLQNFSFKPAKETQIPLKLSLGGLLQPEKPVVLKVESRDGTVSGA
Chain of CYP3A4 (C377/C468 mutant) (P08684 13-503 S18F, form open): as the sequence (P08684 13-503 S18F, form open) above
Chain of CYP3A4 (C64/C468 mutant) (P08684 13-503 S18F, form open): as above

OCCCCc1ccc2ccc3cccc4ccc1c2c34 [1-PB, 1-pyrenebutanol]
E (LRET efficiency with ligand), steady-state measurements ([1]; 1-PB 40 µM, ANF 100 µM, BCT 2.5 µM, cholesterol 100 µM, testosterone 100 µM): 18 ± 1%
R (interprobe distance with ligand), steady-state measurements ([1]; same ligand concentrations): 43.4 ± 0.7 Å
ΔR, steady-state measurements ([1]; same ligand concentrations): 0.8 ± 0.7 Å
τ1 (phosphorescence decay time with ligand) ([2]; Table S1, protein (C64/C121)-ER/DY, 1-PB 40 µM, ANF 100 µM, BCT 2.5 µM, cholesterol 100 µM, testosterone 100 µM, bi-exponential fit): 57 ± 1 µs
F1 (fraction of first exponential) [2, 9]: 35 ± 1%
τ2 (phosphorescence decay time with ligand) [2, 9]: 199 ± 12 µs
τav (average phosphorescence lifetime with ligand) [2, 9]: 149 ± 9 µs
E (LRET efficiency with ligand), lifetime measurements ([2]; Table S2, protein C64/C121-ER/DY, 1-PB 40 µM, ANF 100 µM, BCT 2.5 µM, cholesterol 100 µM, testosterone 100 µM): 46 ± 5%
R (interprobe distance with ligand), lifetime measurements [2, 10]: 35.4 ± 0.8 Å
ΔR, lifetime measurements [2, 10]: 0.4 ± 0.8 Å
ΔR (change in interprobe distance), steady-state fluorescence ([3]; (C64/C468)-ER/DY): −0.3±0.8 Å
ΔE (change in LRET efficiency), steady-state fluorescence ([3]; (C64/C468)-ER/DY, from maximal relative change in donor intensity): 1±1%
E (LRET efficiency with ligand), steady-state measurements [3, 11]: 30 ± 1%
R (interprobe distance with ligand), steady-state measurements [3, 12]: 38.8 ± 0.8 Å
ΔR, steady-state measurements [3, 12]: −0.3 ± 0.8 Å
ΔR (change in interprobe distance), steady-state fluorescence ([4]; (C64/C468)-DY/ER): 0.9±1.8 Å
ΔE (change in LRET efficiency), steady-state fluorescence ([4]; (C64/C468)-DY/ER, from maximal relative change in donor intensity): −4±1%
E (LRET efficiency with ligand), steady-state measurements [4, 13]: 41 ± 1%
R (interprobe distance with ligand), steady-state measurements [4, 14]: 35.8 ± 1.8 Å
ΔR, steady-state measurements [4, 14]: 0.9 ± 1.8 Å
Kd [5]: 14 ± 2 µM
Kd (CYP3A4 (C64/C468 mutant)): 5.7 ± 1.7 µM
ΔELT (change in LRET efficiency), lifetime measurements [6, 15]: −1.5±1%
ΔR (change in interprobe distance), lifetime measurements [6, 15]: 0.4±0.1 Å
τ1 (phosphorescence decay time with ligand) ([6]; Table S1, (C64/C468)-ER/DY, 1-PB 40 µM, ANF 100 µM, BCT 2.5 µM, cholesterol 100 µM, testosterone 100 µM, bi-exponential fit): 63 ± 2 µs
F1 (fraction of first exponential) [6, 16]: 60 ± 8%
τ2 (phosphorescence decay time with ligand) [6, 16]: 241 ± 5 µs
τav (average phosphorescence lifetime with ligand) [6, 16]: 138 ± 4 µs
E (LRET efficiency with ligand), lifetime measurements [6, 11]: 41 ± 1%
R (interprobe distance with ligand), lifetime measurements [6, 12]: 36.7 ± 0.1 Å
ΔR, lifetime measurements [6, 12]: 0.4 ± 0.1 Å
τ1 (phosphorescence decay time with ligand) ([7]; Table S1, protein (C377/C468)-ER/DY, 1-PB 40 µM, ANF 100 µM, BCT 2.5 µM, cholesterol 100 µM, testosterone 100 µM, bi-exponential fit): 45 ± 5 µs
F1 (fraction of first exponential) [7, 17]: 30 ± 3%
τ2 (phosphorescence decay time with ligand) [7, 17]: 149 ± 5 µs
τav (average phosphorescence lifetime with ligand) [7, 17]: 118 ± 2 µs
E (LRET efficiency with ligand), lifetime measurements ([7]; Table S2, protein C377/C468-ER/DY, 1-PB 40 µM, ANF 100 µM, BCT 2.5 µM, cholesterol 100 µM, testosterone 100 µM): 35 ± 1%
R (interprobe distance with ligand), lifetime measurements [7, 18]: 38.3 ± 0.3 Å
ΔR, lifetime measurements [7, 18]: 1.6 ± 0.3 Å
ΔELT (change in LRET efficiency), lifetime measurements [8, 19]: +3.8±1%
ΔR (change in interprobe distance), lifetime measurements [8, 19]: −0.9±0.1 Å
τ1 (phosphorescence decay time with ligand) ([8]; Table S1, (C64/C468)-DY/ER, 1-PB 40 µM, ANF 100 µM, BCT 2.5 µM, cholesterol 100 µM, testosterone 100 µM, bi-exponential fit): 53 ± 1 µs
F1 (fraction of first exponential) [8, 20]: 46 ± 3%
τ2 (phosphorescence decay time with ligand) [8, 20]: 195 ± 7 µs
τav (average phosphorescence lifetime with ligand) [8, 20]: 129 ± 1 µs
E (LRET efficiency with ligand), lifetime measurements [8, 13]: 45 ± 1%
R (interprobe distance with ligand), lifetime measurements [8, 14]: 35.8 ± 0.1 Å
ΔR, lifetime measurements [8, 14]: -0.9 ± 0.1 Å
